Data on five molecules can be found in patent US20260226084A1, “DUAL RAF AND TUBULIN INHIBITORS AND METHODS OF USE THEREOF” (Deciphera Pharmaceuticals, LLC, priority 2023, published 2026).

Each structure is given as a SMILES string. Like-named read-outs stand apart in the source and are kept apart here.

One assay deals with HPAF-II cells. Put plainly: HPAF-II Cell Proliferation Assay. Type of assay: cell-based. Particulars: Homo sapiens, HPAF-II. Put shortly:
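Viability read-out was resazurin fluorescence (540 nm excitation, 600 nm emission), developed 18–24 h after a 115–120 h compound exposure of 750 HPAF-II cells per well in MEM/10% FBS at 37 °C. Compound was tested as a serial dilution in triplicate, and IC50 values were calculated.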

The next assay has as its target T1, Porcine Brain Tubulin (Sus scrofa, UniProt P02550+P02554).
T1 construct: Porcine Brain Tubulin (T240); purchased Cytoskeleton, Inc T240; BK011P; host or cells: porcine brain (tissue-purified)
Put plainly: Biochemical Tubulin Polymerization Assay. Particulars: Table 3; Tubulin Biochemical assay; read-out: Tubulin Biochem (IC50 class).

[1] abbreviates: HPAF-II cells, Table 2, read-out: Inhibition of cell proliferation in HPAF-II (IC50 class).
[2] abbreviates: Table 3, read-out: HPAF-II (IC50 class).

T1 sequence (P02550 whole entry): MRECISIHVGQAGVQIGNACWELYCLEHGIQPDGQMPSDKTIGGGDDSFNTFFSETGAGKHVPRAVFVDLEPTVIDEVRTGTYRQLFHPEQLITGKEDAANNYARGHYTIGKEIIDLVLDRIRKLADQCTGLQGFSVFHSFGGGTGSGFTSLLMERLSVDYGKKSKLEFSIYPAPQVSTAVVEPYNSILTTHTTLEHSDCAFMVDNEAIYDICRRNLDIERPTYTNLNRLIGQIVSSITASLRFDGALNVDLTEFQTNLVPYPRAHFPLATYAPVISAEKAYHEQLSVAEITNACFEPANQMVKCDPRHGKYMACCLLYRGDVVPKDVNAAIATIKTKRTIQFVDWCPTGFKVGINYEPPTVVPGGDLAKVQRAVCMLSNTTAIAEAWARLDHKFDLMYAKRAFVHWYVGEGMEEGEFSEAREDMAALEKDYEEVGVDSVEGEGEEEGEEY
T1 sequence (P02554 whole entry): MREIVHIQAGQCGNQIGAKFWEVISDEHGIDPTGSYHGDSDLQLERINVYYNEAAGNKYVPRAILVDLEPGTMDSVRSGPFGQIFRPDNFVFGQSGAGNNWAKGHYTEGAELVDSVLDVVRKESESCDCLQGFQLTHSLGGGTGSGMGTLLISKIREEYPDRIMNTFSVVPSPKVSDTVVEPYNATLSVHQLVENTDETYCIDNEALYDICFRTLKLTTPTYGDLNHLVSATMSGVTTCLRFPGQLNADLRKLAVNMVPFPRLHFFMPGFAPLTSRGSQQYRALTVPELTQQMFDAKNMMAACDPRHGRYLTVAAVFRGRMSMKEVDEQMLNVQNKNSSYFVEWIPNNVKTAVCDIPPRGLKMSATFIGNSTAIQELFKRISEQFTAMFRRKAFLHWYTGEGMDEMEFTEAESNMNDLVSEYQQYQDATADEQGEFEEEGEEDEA

Consider `Cc1ccc(NC(=O)c2cc(C(F)(F)F)cnn2)cc1-c1ccnc(-c2ccnc(NC(=O)C3CC3)c2)c1` [Example 67], for which the results for the IC50 in the assay on HPAF-II cells (setting [1]), in the assay on HPAF-II cells (setting [2]) and at Porcine Brain Tubulin were below 100 nM, below 100 nM and below 3000 nM, respectively.

Regarding `Cc1ccc(NC(=O)c2cc(C#N)cnn2)cc1-c1ccnc(-c2ccnc(NC(=O)C3CC3)c2)c1` [Example 96, 5-cyano-N-(3-(2′-(cyclopropanecarboxamido)-[2,4′-bipyridin]-4-yl)-4-methylphenyl)pyridazine-3-carboxamide], the IC50 in the assay with HPAF-II cells (setting [1]) lay within 100 to 500 nM; in the assay on HPAF-II cells (setting [2]), 100 to 500 nM; on Porcine Brain Tubulin, 3000 to 20000 nM.

For `Cc1ccc(NC(=O)c2cnc(C(F)(F)F)nc2)cc1-c1ccnc(-c2ccnc(NC(=O)C3CC3)c2)c1` [Example 17], the figures for the IC50 in the assay with HPAF-II cells (setting [1]), in the assay with HPAF-II cells (setting [2]) and on Porcine Brain Tubulin were below 100 nM, below 100 nM and 3000 to 20000 nM, respectively.

As for `Cc1ccc(NC(=O)c2cc(C3CC3)cnn2)cc1-c1ccnc(-c2ccnc(NC(=O)C3CC3)c2)c1` [Example 43], the IC50 with HPAF-II cells (setting [1]) fell in the range of 100 to 500 nM; in the assay on HPAF-II cells (setting [2]), 100 to 500 nM; at Porcine Brain Tubulin, 3000 to 20000 nM.

For the molecule `Cc1ccc(NC(=O)c2cc(C(C)(F)F)cnn2)cc1-c1ccnc(-c2ccnc(NC(=O)C3CC3)c2)c1` [Example 57], the values for the IC50 in the assay with HPAF-II cells (setting [1]), in the assay on HPAF-II cells (setting [2]) and at Porcine Brain Tubulin were below 100 nM, below 100 nM and below 3000 nM, respectively.
